Results from ChEMBL document CHEMBL1132531, “From histamine to imidazolylalkyl-sulfonamides: the design of a novel series of histamine H3-receptor antagonists” (Bioorg Med Chem Lett, 1999).

How the values were obtained:
[1] = target: Histamine H3 receptor (Cavia porcellus) (UniProt Q9JI35); assay: Inhibition of H3-receptor mediated neurogenic contractions in the isolated guinea pig ileum assay; format: functional, tissue-based
Histamine H3 receptor [2] = target: T1, Histamine H3 receptor (Cavia porcellus, UniProt Q9JI35); assay: Binding affinity towards histamine H3 receptor using [3H](R)-alpha-methylhistamine as radioligand in guinea pig cortical homogenates
T1 sequence (Q9JI35 whole entry): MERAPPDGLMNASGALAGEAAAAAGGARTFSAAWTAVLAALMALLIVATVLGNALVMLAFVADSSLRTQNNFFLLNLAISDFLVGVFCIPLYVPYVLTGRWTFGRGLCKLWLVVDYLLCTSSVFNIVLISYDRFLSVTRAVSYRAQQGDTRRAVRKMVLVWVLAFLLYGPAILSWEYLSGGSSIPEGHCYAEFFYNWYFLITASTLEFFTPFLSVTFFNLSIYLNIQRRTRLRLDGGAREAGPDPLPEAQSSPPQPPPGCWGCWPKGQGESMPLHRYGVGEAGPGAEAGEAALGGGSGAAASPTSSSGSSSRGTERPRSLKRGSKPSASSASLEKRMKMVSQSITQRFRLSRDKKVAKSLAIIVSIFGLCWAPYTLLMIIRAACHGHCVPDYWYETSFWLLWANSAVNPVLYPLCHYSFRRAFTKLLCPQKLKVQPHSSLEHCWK

[3] = target: Histamine H3 receptor (Cavia porcellus) (UniProt Q9JI35); assay: Compound was tested for inhibition of histamine H3-receptor mediated neurogenic contractions in the isolated guinea pig ileum assay; Full agonist; format: functional, tissue-based
Histamine H3 receptor [4] = target: T1, Histamine H3 receptor; assay: Binding affinity towards histamine H3 receptor using [3H](R)-alpha-methylhistamine as radioligand in guinea pig ileum LMMP homogenates; format: tissue-based
[5] = target: Histamine H3 receptor (Cavia porcellus) (UniProt Q9JI35); assay: Compound was tested for inhibition of histamine H3-receptor mediated neurogenic contractions in the isolated guinea pig ileum assay; Partial agonist; format: functional, tissue-based

Histamine H3 receptor (Cavia porcellus), sequence (Q9JI35 whole entry): as above

| SMILES | pKB [1] | Ki (Histamine H3 receptor [2]) [nM] | p[A]50 [3] | Ki (Histamine H3 receptor [4]) [nM] | pKB [5] |
| --- | --- | --- | --- | --- | --- |
| O=S(=O)(NCCc1c[nH]cn1)c1ccc2ccccc2c1 | 6.7 | – | – | – | – |
| O=S(=O)(/C=C/c1ccccc1)NCCc1c[nH]cn1 | < 5.5 | 115 | – | – | – |
| O=S(=O)(NCCCc1c[nH]cn1)c1ccc2ccccc2c1 | 5.93 | 14.1 | – | – | – |
| C[C@@H](N)Cc1c[nH]cn1 | – | 0.0851 | 7.94 | 0.151 | – |
| C[C@H](Cc1c[nH]cn1)NS(=O)(=O)c1ccc2ccccc2c1 | – | 1.02 | 6.02 | – | – |
| O=S(=O)(Cc1ccccc1)NCCc1c[nH]cn1 | < 5 | – | – | – | – |
| O=S(=O)(NCCCCCCCCCCc1c[nH]cn1)c1ccc2ccccc2c1 | 5.79 | 138 | – | – | – |
| O=S(=O)(NCCCCc1c[nH]cn1)c1ccc2ccccc2c1 | 6.81 | 22.9 | – | – | – |
| O=S(=O)(NCCCCCCCc1c[nH]cn1)c1ccc2ccccc2c1 | 6.88 | 50.1 | – | – | – |
| O=S(=O)(Cc1ccc2ccccc2c1)NCCc1c[nH]cn1 | < 5 | 490 | – | 1150 | – |
| O=S(=O)(NCCCCCCc1c[nH]cn1)c1ccc2ccccc2c1 | 7.11 | 25.1 | – | – | – |
| CS(=O)(=O)NCCc1c[nH]cn1 | – | – | – | 186 | 4.77 |
| NCCc1c[nH]cn1 [HISTAMINE] | – | 0.145 | 7.15 | 10.5 | – |
| O=S(=O)(NCCCCCCCCc1c[nH]cn1)c1ccc2ccccc2c1 | 6.62 | – | – | – | – |
| O=S(=O)(NCCCCCc1c[nH]cn1)c1ccc2ccccc2c1 | 6.96 | 14.8 | – | – | – |
| O=S(=O)(CCC1CCCCC1)NCCc1c[nH]cn1 | 5.87 | 16.2 | – | – | – |
